From US6737383B1, “Herbicidal oxadiazolidines” (priority 1999, dated 2004)

Tests used:
blackgrass = test: Test B pre/postemergence blackgrass; assay type: in vivo, Alopecurus myosuroides
Summary of the method: (§1)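 Test chemicals in a non-phytotoxic solvent mixture with surfactant were sprayed preemergence onto planted seeds and postemergence onto plants 2 to 18 cm tall (1- to 4-leaf stage). After twelve to sixteen days in a greenhouse, injury was visually rated against untreated controls from 0 (no effect) to 10 (complete control).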

morningglory = test: Test B pre/postemergence morningglory; assay type: in vivo, Ipomoea hederacea
Summary of the method: as §1

bamyardgrass = test: Test B flood test barnyardgrass; assay type: in vivo, Echinochloa crus-galli
Summary of the method: (§2)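 Read-out is a visual response score from 0 (no effect) to 10 (complete control), assigned by comparison with untreated controls. Treatment was applied at the 2-leaf stage, and plants stayed in the greenhouse for twelve to sixteen days before scoring.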

bedstraw = test: Test B pre/postemergence bedstraw; assay type: in vivo, Galium aparine
Summary of the method: as §1

corn = test: Test B pre/postemergence corn; assay type: in vivo, Zea mays
Summary of the method: as §1

smallflower flatsedge = test: Test B flood test smallflower flatsedge; assay type: in vivo, Cyperus difformis
Summary of the method: as §2

purple nutsedge = test: Test B pre/postemergence purple nutsedge; assay type: in vivo, Cyperus rotundus
Summary of the method: as §1

wheat = test: Test B pre/postemergence wheat; assay type: in vivo, Triticum aestivum
Summary of the method: as §1

rape = test: Test B pre/postemergence rape; assay type: in vivo, Brassica napus
Summary of the method: as §1

giant foxtail = test: Test B pre/postemergence giant foxtail; assay type: in vivo, Setaria faberii
Summary of the method: as §1

wild oat = test: Test B pre/postemergence wild oat; assay type: in vivo, Avena fatua
Summary of the method: as §1

pigweed = test: Test B pre/postemergence pigweed; assay type: in vivo, Amaranthus retroflexus
Summary of the method: as §1

rice = test: Test B flood test rice; assay type: in vivo, Oryza sativa
Summary of the method: as §2

sugar beet = test: Test B pre/postemergence sugar beet; assay type: in vivo, Beta vulgaris
Summary of the method: as §1

crabgrass = test: Test B pre/postemergence crabgrass; assay type: in vivo, Digitaria sanguinalis
Summary of the method: as §1

surinam grass = test: Test B pre/postemergence surinam grass; assay type: in vivo, Brachiaria decumbens
Summary of the method: as §1

[1] = Postemergence, Rate 62 g/ha, scale 0 to 10, 0 is no effect, 10 is complete control
[2] = Postemergence, Rate 250 g/ha, scale 0 to 10, 0 no effect, 10 complete control
[3] = Preemergence, Rate 62 g/ha, scale 0 to 10 (0 no effect, 10 complete control)
[4] = Preemergence, Rate 125 g/ha, scale 0 to 10 (0 no effect, 10 complete control)
[5] = Preemergence, Rate 250 g/ha, scale of 0 to 10 where 0 is no effect and 10 is complete control
[6] = Preemergence, Rate 500 g/ha, scale 0 (no effect) to 10 (complete control)
[7] = Rate 125 g/ha, Postemergence, scale 0 to 10, 0 no effect, 10 complete control
[8] = Rate 500 g/ha, Postemergence, scale 0 to 10, 0 no effect, 10 complete control
[9] = Rate 125 g/ha, Postemergence section (flood test species), scale 0 to 10, 0 no effect, 10 complete control
[10] = Rate 500 g/ha, listed under Postemergence (flood test species), scale 0 to 10, 0 no effect, 10 complete control
[11] = flood test, listed under Postemergence, Rate 250 g/ha, scale 0 to 10, 0 no effect, 10 complete control

CCN(CC)C(=O)n1oc(=O)n(Cc2cccs2)c1=O [Compound 77]
2: Plant response rating, Nutsedge (purple nutsedge; [4]) | Giant foxtail plant response rating (giant foxtail; [8]) | Plant response rating, Crabgrass (crabgrass; [4]) | Plant response rating, Crabgrass (crabgrass; [5]) | B. signalgrass plant response rating (surinam grass; Rate 500 g/ha, Postemergence, scale of 0 to 10 where 0 is no effect and 10 is complete control)
6: Nutsedge plant response rating (purple nutsedge; [6])
4: Blackgrass plant response rating (blackgrass; [8]) | Wheat plant response rating (wheat; [8])
0: Blackgrass plant response rating (blackgrass; [1]) | Blackgrass plant response rating (blackgrass; [2]) | Blackgrass plant response rating (blackgrass; [3]) | Plant response rating, Blackgrass (blackgrass; [4]) | Plant response rating, Blackgrass (blackgrass; [5]) | Blackgrass plant response rating (blackgrass; [6]) | Blackgrass plant response rating (blackgrass; [7]) | Morningglory plant response rating (morningglory; [1]) | Morningglory plant response rating (morningglory; [2]) | Morningglory plant response rating (morningglory; [3]) | Plant response rating, Morningglory (morningglory; [4]) | Plant response rating, Morningglory (morningglory; [5]) | Morningglory plant response rating (morningglory; [6]) | Morningglory plant response rating (morningglory; [7]) | Morningglory plant response rating (morningglory; [8]) | Barnyardgrass plant response rating (bamyardgrass; [1]) | Barnyardgrass plant response rating (bamyardgrass; [9]) | Barnyardgrass plant response rating (bamyardgrass; [10]) | Barnyardgrass plant response rating (bamyardgrass; [11]) | Bedstraw plant response rating (bedstraw; [1]) | Bedstraw plant response rating (bedstraw; [2]) | Bedstraw plant response rating (bedstraw; [3]) | Plant response rating, Bedstraw (bedstraw; [4]) | Plant response rating, Bedstraw (bedstraw; [5]) | Bedstraw plant response rating (bedstraw; [6]) | Bedstraw plant response rating (bedstraw; [7]) | Bedstraw plant response rating (bedstraw; [8]) | Corn plant response rating (corn; [1]) | Corn plant response rating (corn; [2]) | Corn plant response rating (corn; [3]) | Plant response rating, Corn (corn; [4]) | Plant response rating, Corn (corn; [5]) | Corn plant response rating (corn; [6]) | Corn plant response rating (corn; [7]) | Corn plant response rating (corn; [8]) | S. Flatsedge plant response rating (smallflower flatsedge; [1]) | S. Flatsedge plant response rating (smallflower flatsedge; [9]) | S. Flatsedge plant response rating (smallflower flatsedge; [11]) | Nutsedge plant response rating (purple nutsedge; [1]) | Nutsedge plant response rating (purple nutsedge; [2]) | Nutsedge plant response rating (purple nutsedge; [3]) | Nutsedge plant response rating (purple nutsedge; [7]) | Nutsedge plant response rating (purple nutsedge; [8]) | Wheat plant response rating (wheat; [1]) | Wheat plant response rating (wheat; [2]) | Wheat plant response rating (wheat; [3]) | Plant response rating, Wheat (wheat; [4]) | Plant response rating, Wheat (wheat; [5]) | Wheat plant response rating (wheat; [6]) | Wheat plant response rating (wheat; [7]) | Rape plant response rating (rape; [1]) | Rape plant response rating (rape; [2]) | Rape plant response rating (rape; [3]) | Plant response rating, Rape (rape; [4]) | Plant response rating, Rape (rape; [5]) | Rape plant response rating (rape; [6]) | Rape plant response rating (rape; [7]) | Giant foxtail plant response rating (giant foxtail; [1]) | Giant foxtail plant response rating (giant foxtail; [2]) | Giant foxtail plant response rating (giant foxtail; [3]) | Plant response rating, Giant foxtail (giant foxtail; [4]) | Giant foxtail plant response rating (giant foxtail; [7]) | Wild oats plant response rating (wild oat; [1]) | Wild oats plant response rating (wild oat; [2]) | Wild oats plant response rating (wild oat; [3]) | Plant response rating, Wild oats (wild oat; [4]) | Plant response rating, Wild oats (wild oat; [5]) | Wild oats plant response rating (wild oat; [6]) | Wild oats plant response rating (wild oat; [7]) | Redroot pigweed plant response rating (pigweed; [1]) | Redroot pigweed plant response rating (pigweed; [2]) | Redroot pigweed plant response rating (pigweed; [3]) | Plant response rating, Redroot pigweed (pigweed; [4]) | Plant response rating, Redroot pigweed (pigweed; [5]) | Redroot pigweed plant response rating (pigweed; [6]) | Redroot pigweed plant response rating (pigweed; [7]) | Redroot pigweed plant response rating (pigweed; [8]) | Rice plant response rating (rice; [1]) | Rice plant response rating (rice; [9]) | Rice plant response rating (rice; [10]) | Rice plant response rating (rice; [11]) | Sugarbeets plant response rating (sugar beet; [1]) | Sugarbeets plant response rating (sugar beet; [2]) | Sugarbeets plant response rating (sugar beet; [3]) | Plant response rating, Sugarbeets (sugar beet; [4]) | Plant response rating, Sugarbeets (sugar beet; [5]) | Sugarbeets plant response rating (sugar beet; [6]) | Sugarbeets plant response rating (sugar beet; [7]) | Sugarbeets plant response rating (sugar beet; [8]) | Crabgrass plant response rating (crabgrass; [1]) | Crabgrass plant response rating (crabgrass; [2]) | Crabgrass plant response rating (crabgrass; [3]) | Crabgrass plant response rating (crabgrass; [7]) | Crabgrass plant response rating (crabgrass; [8]) | B. signalgrass plant response rating (surinam grass; [1]) | B. signalgrass plant response rating (surinam grass; [2]) | B. signalgrass plant response rating (surinam grass; [3]) | Plant response rating, B. signalgrass (surinam grass; [4]) | Plant response rating, B. signalgrass (surinam grass; [5]) | B. signalgrass plant response rating (surinam grass; [6]) | B. signalgrass plant response rating (surinam grass; [7])
3: S. Flatsedge plant response rating (smallflower flatsedge; [10]) | Plant response rating, Nutsedge (purple nutsedge; [5]) | Rape plant response rating (rape; [8]) | Plant response rating, Giant foxtail (giant foxtail; [5]) | Wild oats plant response rating (wild oat; [8]) | Crabgrass plant response rating (crabgrass; [6])
5: Giant foxtail plant response rating (giant foxtail; [6])
